Data reported in BindingDB's records for doi:10.1021/jm970079r (Virginia Polytechnic Institute and State University, 1997).

Experiments:
[1] = target: T1, Amine oxidase [flavin-containing] A (Homo sapiens, UniProt P21397); test: Tested for inhibition- binding affinity against monoamine oxidase A catalyzed oxidation.; details: read-out: kon (M-1-s-1)
T1 sequence (P21397 whole entry): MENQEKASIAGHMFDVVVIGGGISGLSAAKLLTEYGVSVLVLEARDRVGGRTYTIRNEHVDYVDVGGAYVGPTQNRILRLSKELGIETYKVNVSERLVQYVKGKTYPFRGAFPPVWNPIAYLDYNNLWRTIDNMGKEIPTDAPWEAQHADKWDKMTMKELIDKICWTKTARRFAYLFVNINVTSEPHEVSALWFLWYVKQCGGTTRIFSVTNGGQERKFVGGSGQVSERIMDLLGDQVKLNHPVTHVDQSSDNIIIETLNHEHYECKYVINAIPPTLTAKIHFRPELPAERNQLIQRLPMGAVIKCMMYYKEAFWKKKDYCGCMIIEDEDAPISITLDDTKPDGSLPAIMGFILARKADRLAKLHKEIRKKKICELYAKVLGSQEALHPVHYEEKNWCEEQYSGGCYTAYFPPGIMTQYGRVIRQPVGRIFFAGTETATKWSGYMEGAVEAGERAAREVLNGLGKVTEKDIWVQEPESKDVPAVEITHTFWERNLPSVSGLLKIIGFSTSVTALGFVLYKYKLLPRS

[2] = target: T2, Amine oxidase [flavin-containing] B (Bos taurus, UniProt P56560); test: Tested for inhibition- binding affinity against monoamine oxidase B catalyzed oxidation.; details: read-out: kon (M-1-s-1)
T2 sequence (P56560 whole entry): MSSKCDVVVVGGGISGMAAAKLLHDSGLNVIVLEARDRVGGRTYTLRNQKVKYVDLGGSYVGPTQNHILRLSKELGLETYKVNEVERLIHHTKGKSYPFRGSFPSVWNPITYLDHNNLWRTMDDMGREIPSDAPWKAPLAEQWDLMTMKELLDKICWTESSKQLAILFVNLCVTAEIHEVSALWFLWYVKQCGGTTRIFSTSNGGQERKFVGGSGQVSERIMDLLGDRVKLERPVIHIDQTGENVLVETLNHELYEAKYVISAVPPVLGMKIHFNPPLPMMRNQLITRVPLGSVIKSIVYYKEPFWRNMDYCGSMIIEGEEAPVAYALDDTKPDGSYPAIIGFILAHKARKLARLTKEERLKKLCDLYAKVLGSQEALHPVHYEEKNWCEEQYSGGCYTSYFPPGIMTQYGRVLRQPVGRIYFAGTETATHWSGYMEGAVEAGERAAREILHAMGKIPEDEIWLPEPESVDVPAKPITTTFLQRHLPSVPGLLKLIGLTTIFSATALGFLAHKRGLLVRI

Row | Structure (SMILES) | kon [1] | kon [2]
1 | C1=C(c2ccccc2-c2ccccc2)CCN(C2CC2)C1 | 220000 M⁻¹ s⁻¹ | 
2 | C1=C(c2ccccc2)CCN(C2CC2)C1 | 50000 M⁻¹ s⁻¹ | 180000 M⁻¹ s⁻¹
3 | C1=C(c2ccc3ccccc3c2)CCN(C2CC2)C1 | 380000 M⁻¹ s⁻¹ | 150000 M⁻¹ s⁻¹
4 | C1=C(c2cccc(-c3ccccc3)c2)CCN(C2CC2)C1 | 680000 M⁻¹ s⁻¹ | 440000 M⁻¹ s⁻¹
5 | C1=C(c2cccc3ccccc23)CCN(C2CC2)C1 | 400000 M⁻¹ s⁻¹ | 110000 M⁻¹ s⁻¹
